Patent publication US20220401414A1, “TREATMENT AND PREVENTION OF A NEURODEGENERATIVE DISORDER” (Inflazome Limited, priority 2019, published 2022)

Tested on: 6-OHDA mouse model of Parkinson's disease
Test: Studies C and D: amphetamine-induced ipsilateral rotations in the 6-OHDA mouse model
Assay type: in vivo, C57BL6 mice
Conditions: Study D, 3 mg/kg oral daily, day 21 after 6-OHDA (12 μg)
Description: To determine the oral efficacy of the compound of formula (I) in the 6-OHDA mouse model of Parkinson's disease.
8-week-old C57BL6 male mice (obtained from ARC, Perth, Australia) were housed under a 12-h light cycle in a SPF climate-controlled facility with food and water provided ad libitum for two weeks prior to study initiation. For treatment with the compound of formula (I), mice were dosed via oral gavage. Ten (10) mice in each group were dosed at 3 or 1 mg/kg, starting the day before (24 hr prior) stereotaxic surgery, and then QD until sacrifice.
6-OHDA (Sigma) was prepared immediately prior to surgeries. A sterile saline (0.9%) solution containing ascorbic acid (0.2%) was used as the vehicle to dissolve 6-OHDA. […] In order to inject a final concentration of 12 μg into the right striatum, a working stock of 6 mg/ml was made injecting a final volume of 2 μl.
Mice were anaesthetized using ketamine (100 mg/kg, i.p.) and xylazine (10 mg/kg i.p.)
anesthesia and were placed into a stereotactic frame with nose and ear bars specially adapted for mice. The lesion was performed using a 5 μl Hamilton syringe to deliver either vehicle or 6-OHDA (12 μg) at the following coordinates relative to bregma: AP: −1.2 mm; ML: −1.7 mm; DV: 3.5 mm into the right dorsal striatum according to the stereotaxic atlas (“The mouse brain in stereotaxic coordinates” by Paxinos and Franklin, 1997). After drilling a 1 mm burr-hole in the skull, a 2 μl volume of solution was infused at the target site at the rate of 0.5 μl per minute. The needle was held in place for at least 5 minutes after injection to minimize retrograde flow along the needle tract. Mice were administered a subcutaneous injection of sterile Ringer's solution to is facilitate recovery and were placed on a heat-pad until complete recovery from anesthesia.
Amphetamine-induced ipsilateral rotations were performed at day 21 post-surgery. Mice were injected with 2 mg/kg of D-amphetamine and placed in circular glass bowls.
After an acclimatization period of five minutes, the net ipsilateral rotations over ten minutes were recorded and counted. Quantitation was performed from recorded videos by an investigator blinded to the treatment groups.
The aim of study D was to compare the neuroprotective efficacy of the compound of formula (I) with MCC95o in the mouse unilateral 6-OHDA model at 3 mg/kg. The amphetamine-induced ipsilateral rotations and striatal dopamine (DA) levels were assessed, using a protocol identical to that used for study C, with ten (10) mice in each group being dosed at 3 mg/kg for each drug, starting the day before (24 hr prior) stereotaxic surgery, and then daily throughout until sacrifice.

Structure (SMILES): CC(C)(O)c1coc(S(=O)(=O)NC(=O)Nc2c3c(cc4c2CCC4)CCC3)c1 [MCC950, reference compound]
- reduction in amphetamine-induced rotations relative to the 6-OHDA untreated group: 55%
